Values after ≈ are worked out from the molar mass of the structure shown.

This is an account of results in ChEMBL document CHEMBL2346660, “Synthesis and biological evaluation of trans 6-methoxy-1,1-dimethyl-2-phenyl-3-aryl-2,3-dihydro-1H-inden-4-yloxyalkylamine derivatives against drug susceptible, non-replicating M. tuberculosis H37Rv and clinical multidrug resistant strains” (Bioorg Med Chem Lett, 2013).

The subject of test [1] is Mycobacterium tuberculosis. As to the kind of experiment: Antimicrobial activity against rifampicin-resistant and INH-resistant Mycobacterium tuberculosis 1678/05 by agar dilution method and BACTEC radiometric method. Type of test: functional.
Test [2] has as its system Mycobacterium tuberculosis. As to the kind of experiment: Antimicrobial activity against rifampicin-resistant and INH-resistant Mycobacterium tuberculosis 2643 by agar dilution method and BACTEC radiometric method. Type of test: functional.

In general, MIC refers to the smallest concentration in the dilution series that meets the test's criterion for growth inhibition. With `COc1cc(OCCN(C(C)C)C(C)C)c2c(c1)C(C)(C)[C@H](c1ccccc1)[C@H]2c1ccccc1` (relative stereo), the MIC in test [1] and in test [2] was 6.25 µg/mL (≈ 13.3 µM) each time.
For `COc1cc(OCCN2CCCCCC2)c2c(c1)C(C)(C)[C@H](c1ccccc1)[C@H]2c1c(OC)ccc2ccccc12` (relative stereo), the MIC in test [1] and in test [2] was 3.12 µg/mL (≈ 5.68 µM) each time.
